Laboratory results from patent US5962314A, “Calcium receptor-active molecules” (priority 1997, dated 1999).
Entries after “also recorded” stand apart in the source; their conditions may differ. Read-outs that look alike come from different tables or passages of the source. Each block holds one molecule with its values, some of them ahead of it.

Key:
Format in all cases: cell-based
[1] = target: T1, parathyroid cell calcium receptor (Bos taurus, UniProt P35384); assay: cell-based; details: for relative potency, in words: parathyroid cells; for EC50: increases in intracellular calcium, fura-2 loaded cells; for effect on mobilization elicited by extracellular divalent cations / effect on [Ca2+]i at low extracellular Ca2+: 100 μM; for effect on [Ca2+]i at low extracellular Ca2+: 0.5 mM extracellular Ca2+
T1 sequence (P35384 20-1085): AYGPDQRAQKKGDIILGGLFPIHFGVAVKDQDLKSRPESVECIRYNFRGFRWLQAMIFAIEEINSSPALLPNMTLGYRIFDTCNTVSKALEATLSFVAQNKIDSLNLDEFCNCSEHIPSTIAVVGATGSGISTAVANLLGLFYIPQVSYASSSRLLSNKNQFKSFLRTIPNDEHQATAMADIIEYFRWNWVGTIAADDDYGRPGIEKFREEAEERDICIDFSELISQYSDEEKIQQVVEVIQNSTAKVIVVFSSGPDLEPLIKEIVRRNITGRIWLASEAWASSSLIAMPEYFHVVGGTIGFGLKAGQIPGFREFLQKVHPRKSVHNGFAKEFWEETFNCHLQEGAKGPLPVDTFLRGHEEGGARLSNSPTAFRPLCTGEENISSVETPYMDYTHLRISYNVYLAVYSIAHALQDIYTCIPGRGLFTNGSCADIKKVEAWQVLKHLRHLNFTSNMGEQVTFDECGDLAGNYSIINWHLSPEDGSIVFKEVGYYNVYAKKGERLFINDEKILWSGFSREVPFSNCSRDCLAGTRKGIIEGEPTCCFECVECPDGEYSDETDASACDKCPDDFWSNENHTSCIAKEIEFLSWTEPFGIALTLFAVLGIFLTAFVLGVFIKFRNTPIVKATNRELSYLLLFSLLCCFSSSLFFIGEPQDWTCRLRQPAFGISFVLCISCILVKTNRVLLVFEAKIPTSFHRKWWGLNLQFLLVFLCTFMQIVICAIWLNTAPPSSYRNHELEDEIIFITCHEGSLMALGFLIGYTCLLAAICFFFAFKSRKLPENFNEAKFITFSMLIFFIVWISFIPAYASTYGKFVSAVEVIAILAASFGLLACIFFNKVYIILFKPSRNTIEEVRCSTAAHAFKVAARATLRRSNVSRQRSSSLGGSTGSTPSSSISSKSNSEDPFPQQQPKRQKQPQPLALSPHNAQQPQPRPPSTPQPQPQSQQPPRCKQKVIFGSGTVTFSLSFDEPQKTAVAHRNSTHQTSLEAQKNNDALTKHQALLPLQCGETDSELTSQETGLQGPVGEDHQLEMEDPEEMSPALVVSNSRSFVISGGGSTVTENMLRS

[2] = system: Ca2+ influx in parathyroid cells; assay: Ca2+ influx in bovine parathyroid cells; details: for effect on [Ca2+]i: 100 to 1000 μM, 2 mM CaCl2; for effect on extracellular Ca2+-elicited increases in [Ca2+]i: pretreatment
[3] = target: T2, bovine parathyroid cell calcium receptor (Bos taurus, UniProt P35384); assay: Cl- current in Xenopus oocytes expressing BoPCaR 1; details: for effect on inward currents: EGTA 100 μM, 9AC, A23187
T2 construct: expressed in transfected cells; host or cells: Xenopus laevis oocytes injected with BoPCaR 1 cRNA
T2 sequence (P35384 20-1085): T1 sequence (P35384 20-1085)
Procedure: Several pharmacological and biochemical criteria were used to identify this clone as encoding a bona fide bovine parathyroid Ca^2+ receptor. […] These responses increased markedly over a period of one to four days after injection of the eggs with cRNA prepared from the BoPCaR 1 cDNA. Furthermore, the ranges of the concentrations of the two cations eliciting this response were very similar to those shown previously to act on bovine parathyroid cells in vitro.
Xenopus oocytes were injected with BoPCaR 1, the 5.3 Kb cDNA encoding a bovine parathyroid cell calcium receptor as described in Example 25. After two to three days, Cl^- currents were examined in the oocytes using a two-electrode voltage clamp.
Xenopus oocytes were injected with BoPCaR 1 as described in Example 25. After two to three days, Cl^- currents were examined in the oocytes using two electrode voltage clamp.

Structure (SMILES): NCCCCCCCCCCCCN [1,12-diaminododecane (DADD), 1,12-diaminododecane]
effect on [Ca2+]i [2]: causes a prompt fall in [Ca^2+ ]i
effect on extracellular Ca2+-elicited increases in [Ca2+]i [2]: depresses steady-state, but not transient increases in [Ca^2+ ]i

Structure (SMILES): CC1=C(C(=O)OC(C)C)[C@H](c2cccc3nonc23)C([N+](=O)[O-])=C(C)N1 [(+) 202-791]
effect on basal or extracellular Ca2+-evoked [Ca2+]i ([1]; 1 μM): None of the dihydropyridines tested

Structure (SMILES): CC1=C(C(=O)OC(C)C)[C@@H](c2cccc3nonc23)C([N+](=O)[O-])=C(C)N1 [(-) 202-791]
effect on basal or extracellular Ca2+-evoked [Ca2+]i ([1]; 1 μM): None of the dihydropyridines tested

Structure (SMILES): N=C(N)NCCC[C@H](N)C(=O)NCCCNCCCNCCCCCNC(=O)[C@H](CC(N)=O)NC(=O)Cc1ccc(O)cc1O [Argiotoxin-636]
effect on response to extracellular Ca2+ [1]: did potentiate cytosolic Ca^2+
effect on [Ca2+]i ([1]; 400 μM): did not elicit increases in [Ca^2+ ]
effect on [Ca2+]i ([1]; 100 to 300 μM): had no effect

Structure (SMILES): N=C(N)NCCC[C@H](N)C(=O)NCCCNCCCNCCCCCNC(=O)[C@H](CC(N)=O)NC(=O)Cc1c[nH]c2cccc(O)c12 [Argiotoxin-659]
effect on [Ca2+]i ([1]; 100 to 300 μM): evoked transient increases in [Ca^2+ ]i

Structure (SMILES): COC(=O)C1=C(C)NC(C)=C([N+](=O)[O-])C1c1ccccc1C(F)(F)F (stereo not shown) [BAY K 8644]
effect on basal or extracellular Ca2+-evoked [Ca2+]i ([1]; 1 μM): None of the dihydropyridines tested

Structure (SMILES): CC(NCCCc1ccccc1)c1ccccc1 (stereo not shown) [Compound 1D]
relative potency, in words [1]: nearly as potent as the parent molecule

Structure (SMILES): CC(N[C@H](C)c1ccccc1)c1cccc2ccccc12 (stereo partly shown) [Compound 4G]
EC50 ([1]; Table 8): 1.8 µM

Structure (SMILES): CC(N[C@H](C)c1ccccc1)c1ccc2ccccc2c1 (stereo partly shown) [Compound 4H]
EC50 ([1]; Table 8): ≥ 3 µM

Structure (SMILES): C[C@@H](NCc1ccc(C(C)(C)C)cc1)c1cccc2ccccc12 [Compound 15G]
EC50 ([1]; Table 8): ~0.5 µM

Structure (SMILES): CC(NCCCc1ccccc1)C1CCCCC1 (stereo not shown) [Compound 20V]
EC50 ([1]; Table 7): > 100 µM

Structure (SMILES): CNc1ccc2oc(C[C@H]3O[C@@]4(CC[C@H]3C)O[C@H]([C@H](C)C(=O)c3ccc[nH]3)[C@H](C)C[C@H]4C)nc2c1C(=O)O [Compound A23187]
effect on inward currents [3]: activated

Structure (SMILES): O=C(O)CN(CCOCCOCCN(CC(=O)O)CC(=O)O)CC(=O)O [EGTA]
effect on inward currents [3]: prevents oocytes expressing the calcium receptor from responding

Structure (SMILES): NC[C@H]1O[C@H](O[C@H]2[C@H](O)[C@@H](O[C@H]3O[C@H](CO)[C@@H](O)[C@H](N)[C@H]3O)[C@H](N)C[C@@H]2N)[C@H](O)[C@@H](O)[C@@H]1O [Kanamycin]
effect on [Ca2+]i ([1]; 500 μM): without effect

Structure (SMILES): NCCCNCCCCNCCCNCCCN(O)CCCNC(=O)Cc1c[nH]c2ccccc12 [NPS 017]
effect on Cl- current ([3]; BoPCaR 1-injected oocytes): caused oscillatory increases in the Cl^-
effect in control oocytes ([3]; uninjected, water or rat liver mRNA oocytes): Neither NPS 017 nor NPS 019 elicited changes in Cl^-

Structure (SMILES): COc1ccc(CC(=O)NCCCCCCCCCCCCN)cc1OC [NPS 384]
effect on [Ca2+]i ([1]; NPS 384 300 μM): did not evoke an increase in [Ca^2+ ]i; also recorded: fails to do so
effect on influx of extracellular Ca2+ ([2]; 300 μM): blocked influx of extracellular Ca^2+
effect on [Ca2+]i [2]: causes a prompt fall in [Ca^2+ ]i
effect on extracellular Ca2+-elicited increases in [Ca2+]i [2]: depresses steady-state, but not transient increases in [Ca^2+ ]i

Structure (SMILES): CCCC(=O)N[C@@H](Cc1ccc(O)cc1)C(=O)NCCCCNCCCNCCCN [Philanthotoxin-433]
effect on [Ca2+]i ([1]; 500 μM): without effect

Structure (SMILES): NCCNCCNCCN [Triethylenetramine (TETA), triethylenetetramine]
effect on [Ca2+]i [1]: mobilize intracellular Ca^2+

Structure (SMILES): COC(=O)C1=C(C)NC(C)=C(C(=O)OC)C1c1ccccc1[N+](=O)[O-] [nifedipine]
effect on basal or extracellular Ca2+-evoked [Ca2+]i [1]: None of the dihydropyridines tested

Continued, in another order:

relative potency, in words [1]: as potent as NPS 467
Structure (SMILES): COc1cccc(C(C)NCCC(c2ccccc2)c2ccccc2)c1 (racemic) [meta-Methoxyfendiline]

effect on inward currents [3]: blocks the currents
Structure (SMILES): O=C(O)c1c2ccccc2cc2ccccc12 [Compound 9AC]

EC50 ([1]; Table 8): 0.26 µM
Structure (SMILES): CC(C)c1ccc([C@@H](C)N[C@H](C)c2cccc3ccccc23)cc1 [Compound 14L]

EC50 ([1]; Table 8): 0.38 µM
Structure (SMILES): COc1cccc([C@@H](C)N[C@H](C)c2cccc3ccccc23)c1 [Compound 14Y]

effect on [Ca2+]i at low extracellular Ca2+ [1]: evoked no change
Structure (SMILES): COc1ccc(CCN(C)CCCC(C#N)(c2cc(OC)c(OC)c(OC)c2)C(C)C)cc1OC [Compound D-600]
mode of action at the calcium receptor [1]: partial agonists or allosteric activators
effect on mobilization elicited by extracellular divalent cations [1]: potentiated the mobilization of intracellular Ca^2+
effect on influx of extracellular Ca2+ ([2]; 100 μM): blocked the influx of extracellular Ca^2+

effect on [Ca2+]i [1]: mobilize intracellular Ca^2+
Structure (SMILES): NCCCN(CCCN)CCCN(CCCN)CCCCN(CCCN)CCCN(CCCN)CCCN [NPS 381, N^1,N^1,N^5,N^10,N^14,N^14-hexakis-(3-aminopropyl) spermine]

concentration eliciting responses ([3]; BoPCaR 1-injected oocytes, only at much higher concentrations): 100 µM
Structure (SMILES): COc1cccc([C@H](C)NCCCc2ccccc2Cl)c1 [NPS S-568]

effect on [Ca2+]i at low extracellular Ca2+ [1]: evoked no change
Structure (SMILES): CCN(CC)CCCCCCCCOC(=O)c1cc(OC)c(OC)c(OC)c1 [TMB-8]
mode of action at the calcium receptor [1]: partial agonists or allosteric activators
effect on mobilization elicited by extracellular divalent cations [1]: potentiated the mobilization of intracellular Ca^2+; also recorded: potentiated transient increases in [Ca^2+ ]i
effect on influx of extracellular Ca2+ ([2]; 100 μM): blocked the influx of extracellular Ca^2+

effect on [Ca2+]i [1]: mobilize intracellular Ca^2+
Structure (SMILES): NCCNCCNCCNCCN [Tetraethylenepentamine (TEPA), Tetraethylenepentamine]

effect on [Ca2+]i ([1]; 500 μM): without effect
Structure (SMILES): CCC[C@@H]1C[C@@H](C(=O)N[C@@H]([C@H]2O[C@H](SC)[C@H](O)[C@@H](O)[C@H]2O)[C@@H](C)O)N(C)C1 [lincomycin]

effect on basal or extracellular Ca2+-evoked [Ca2+]i ([1]; 1 μM): None of the dihydropyridines tested
Structure (SMILES): CCOC(=O)C1=C(C)NC(C)=C(C(=O)OC)C1c1cccc([N+](=O)[O-])c1 (stereo not shown) [nitrendipine]
